According to PMC4669722, “Antitumour potential of BPT: a dual inhibitor of cdk4 and tubulin polymerization” (Cell Death & Disease, 2015):

Legend:
[1] = target: Cdk1-cyclin B1 (Homo sapiens, UniProt P06493); assay: In vitro kinase assay, Cdk1-cyclin B1 (in-house); type: biochemical; details: three independent experiments; read-out: IC50 (mean±S.D.), Cdk1-cyclin B1
Method: (§1) The in vitro kinase assays for testing against Cdk4-cyclin D1, Cdk2-cyclin A, Cdk1-cyclin B1 and Cdk9-cyclin T1 were performed in-house. The methodology and results have been reported previously.[20], [30], [31], [32], [45] The kinase profiling for 58 representative kinases was carrried out commercially at Millipore Bioscience Division, Livingston, UK.

[2] = test system: A549 (NSCLC; p53+, pRb+); assay: Cell proliferation (MTT) assay, A549; type: cell-based; details: Homo sapiens, 48 h, read-out: IC50 cell growth inhibition, A549
Method: (§2) All 10 human cancer cell lines were maintained at 37 °C in 5% CO2 in RPMI-1640 medium, supplemented with 10% foetal calf serum and 100 μg/ml normocin. The 10 cancer cell lines used for screening were all obtained from ATCC (Manassas, VA, USA); they were the NSCLC (a form of cancer that is resistant to chemotherapy) lines: NCI-H460 (pRb^+, p53^+), A549 (pRb^+, p53^+), Calu-1 (pRb^+, p53-null), NCI-H1299 (pRb^+, p53-null), NCI-H358 (pRb-null, p53-null); the colon cancer line LS174T (pRb^+, p53^+); the prostate cancer line PC-3 (pRb^+, p53-null); the pancreatic cancer line MiaPaca (pRb^+, p53-mutant). The genotypes within brackets indicate the status of the tumour suppressor proteins pRb and p53. The mouse embryonic normal hepatic cell line (BNL CL2) and its SV40 large T-antigen-transformed counterpart cell line (BNL SV A.8) were also purchased from ATCC. The large T-antigen inactivates the tumour suppressor proteins p53 and pRb. The detailed procedure of cell proliferation (MTT) assay and IC50 determination was described previously.[32]

[3] = test system: BNL CL2 (mouse embryonic normal hepatic cells); assay: Flow cytometric cell cycle analysis, BNL CL2; type: cell-based; details: BNL CL2, 48 h, IC50 and IC70 concentrations
Method: The untreated (control) and treated (with test compounds) cells were harvested by trypsinization, washed once with PBS and then fixed in 70% chilled (−20 °C) ethanol for minimum 1 h. After the fixation step, cells were centrifuged for 5 min at 3000 × g at room temperature, and the pellet was suspended in PBS containing 50 μg/ml propidium iodide (Sigma-Aldrich, Dorset, UK; cat. no. P-4170) and 0.5 mg/ml DNase-free ribonuclease (Sigma-Aldrich; cat. no. R-5503). The cells were stained for 1 h in the dark at 4 °C. Cell cycle analysis was performed on the Beckman Coulter (Epics Altra) fluorescence-activated cell sorter (Beckman Coulter UK Ltd, Buckinghamshire, UK). To gate all the events that represent single cells, and not cell doublets or cell clumps, the following analyses were performed on the samples. Cytograms of propidium iodide fluorescence peak signal versus integrated fluorescence or the linear signal were plotted. All data points on the straight line were isolated in a single gate and the gated data was further used for plotting a histogram that represents a complete cell cycle. The total number of events was not allowed to exceed 200 events per s. Data acquisition was stopped after a minimum of 10 000 events had been collected.

[4] = target: IGF-1 R (Homo sapiens, UniProt P08069); assay: Kinase profiling (Millipore), IGF-1 R; type: biochemical
Method: as §1

[5] = test system: tubulin; assay: Cell-free tubulin polymerization assay in vitro; type: biochemical; details: for Vmax of tubulin polymerization: control 19 mOD/min
Method: The purified tubulin was obtained commercially (Cytoskeleton Inc., Denver, CO, USA) and the polymerization assays were carried out according to the method described previously.[36] […] The resulting polymerization curves are representative of the three phases of microtubule polymerization, namely nucleation, growth and steady-state equilibrium. Paclitaxel and nocodazole were used in the assay as a known enhancer and inhibitor of tubulin polymerization, respectively. The ability of BPT to inhibit tubulin polymerization in vitro was determined according to the manufacturer's instructions. Briefly, tubulin protein (3 mg/ml) was polymerized in GTP buffer (80 mM PIPES, pH 6.9, 2 mM MgCl2, 0.5 mM EGTA, 10.2% glycerol and 1 mM GTP) in the presence of a range of BPT concentrations at 37 °C in a temperature-regulated Biotech spectrophotometer (Potton, Bedfordshire, UK). The absorbance (at 340 nm) kinetics of 61 cycles for each sample was studied and the readings were recorded at an interval of 1 min.

[6] = test system: NCI-H358 (NSCLC; p53 null, pRb null); assay: Cell proliferation (MTT) assay, NCI-H358; type: cell-based; details: Homo sapiens, 48 h, read-out: IC50 cell growth inhibition, NCI-H358
Method: as §2

[7] = test system: MIAPaCa cells; assay: Western blot of cell cycle proteins in mutant p53 cells; type: cell-based, human; details: data not shown
Method: A549, LS174T and MiaPaCa cells were seeded in 25 cm^2 tissue culture flasks in the complete growth medium. […] Cells were harvested by trypsinization, washed in ice-cold PBS and then lysed in buffer (Sigma-Aldrich; cat. no. C-2978) containing protease inhibitor cocktail (Sigma-Aldrich; cat. no. P8340). The lysates were centrifuged at 14 000 r.p.m. (revolutions per minute) for 10 min at 4 °C and the total protein concentrations were estimated in the clear supernatants using the Bradford method. Equal amounts of protein (40 μg) were loaded and electrophoresed on 10% SDS-polyacrylamide gels and blotted on Immobilon-P Transfer Membrane (Millipore; cat. no.IPVH20200). The blots were probed with respective primary antibodies (at 4 °C, overnight) at the following dilutions: cdc2 (New England Biolabs, Hitchin, UK; cat. no. 9110) at 1 : 1000 to detect Cdk1; cyclin B1 (CRUK, London, UK; cat. no. V152) at 1 : 1500 dilution to detect cyclin B1; Pab 1801 (Santa Cruz Biotechnology, Heidelberg, Germany; cat. no. sc-98) at 1 : 500 dilution to detect p53; N-20 (Santa Cruz Biotechnology; cat. no. sc-469) at 1 : 500 dilution to detect p21; C-19 (Santa Cruz Biotechnology; cat. no. sc-528) at 1 : 250 dilution to detect p27; AC-40 (Sigma-Aldrich; cat. no. A4700) at 1 : 2000 dilution to detect actin. […]

Chain of IGF-1 R (P08069 31-1367): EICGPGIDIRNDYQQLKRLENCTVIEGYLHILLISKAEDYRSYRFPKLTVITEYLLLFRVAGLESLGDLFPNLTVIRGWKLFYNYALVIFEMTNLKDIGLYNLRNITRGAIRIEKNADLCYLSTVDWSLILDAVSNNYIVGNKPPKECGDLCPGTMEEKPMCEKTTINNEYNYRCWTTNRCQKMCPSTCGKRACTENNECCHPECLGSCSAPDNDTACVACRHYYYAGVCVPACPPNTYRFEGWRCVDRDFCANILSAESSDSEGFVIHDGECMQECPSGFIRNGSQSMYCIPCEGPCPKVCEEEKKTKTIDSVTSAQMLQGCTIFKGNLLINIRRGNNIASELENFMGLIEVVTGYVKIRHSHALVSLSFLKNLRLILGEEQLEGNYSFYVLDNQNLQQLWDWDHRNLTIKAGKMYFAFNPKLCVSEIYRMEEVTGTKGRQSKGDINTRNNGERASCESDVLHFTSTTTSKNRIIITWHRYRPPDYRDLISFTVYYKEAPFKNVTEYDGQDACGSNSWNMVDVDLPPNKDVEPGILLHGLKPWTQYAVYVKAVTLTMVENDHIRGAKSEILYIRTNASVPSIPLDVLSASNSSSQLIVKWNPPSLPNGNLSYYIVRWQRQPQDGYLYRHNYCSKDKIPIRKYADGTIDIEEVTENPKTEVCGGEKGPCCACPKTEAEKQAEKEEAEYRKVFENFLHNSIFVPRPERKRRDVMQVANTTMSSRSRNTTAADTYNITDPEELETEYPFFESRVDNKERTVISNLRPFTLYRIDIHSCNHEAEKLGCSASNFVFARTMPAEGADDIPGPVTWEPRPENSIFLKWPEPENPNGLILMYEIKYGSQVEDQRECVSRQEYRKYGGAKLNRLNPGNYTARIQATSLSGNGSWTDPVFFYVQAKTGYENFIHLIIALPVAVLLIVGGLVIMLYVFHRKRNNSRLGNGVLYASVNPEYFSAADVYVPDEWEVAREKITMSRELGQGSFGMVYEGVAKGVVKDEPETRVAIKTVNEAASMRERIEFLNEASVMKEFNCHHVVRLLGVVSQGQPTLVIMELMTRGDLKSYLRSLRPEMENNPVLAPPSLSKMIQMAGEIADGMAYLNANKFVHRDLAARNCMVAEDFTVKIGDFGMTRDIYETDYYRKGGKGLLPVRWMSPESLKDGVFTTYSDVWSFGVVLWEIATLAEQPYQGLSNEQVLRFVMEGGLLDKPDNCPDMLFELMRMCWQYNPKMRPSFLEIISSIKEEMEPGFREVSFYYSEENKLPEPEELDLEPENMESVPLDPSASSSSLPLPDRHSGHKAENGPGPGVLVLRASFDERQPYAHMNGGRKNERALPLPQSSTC
Chain of Cdk1-cyclin B1 (P06493 whole entry): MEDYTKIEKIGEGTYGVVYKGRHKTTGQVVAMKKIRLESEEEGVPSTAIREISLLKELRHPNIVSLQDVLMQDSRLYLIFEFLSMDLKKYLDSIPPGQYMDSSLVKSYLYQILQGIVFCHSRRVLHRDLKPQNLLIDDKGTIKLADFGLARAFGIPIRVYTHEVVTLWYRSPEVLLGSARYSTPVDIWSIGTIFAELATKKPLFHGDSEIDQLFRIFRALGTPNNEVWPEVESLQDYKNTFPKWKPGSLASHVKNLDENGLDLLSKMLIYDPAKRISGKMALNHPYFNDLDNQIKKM
Chain of Cdk1-cyclin B1 (P14635 whole entry partner): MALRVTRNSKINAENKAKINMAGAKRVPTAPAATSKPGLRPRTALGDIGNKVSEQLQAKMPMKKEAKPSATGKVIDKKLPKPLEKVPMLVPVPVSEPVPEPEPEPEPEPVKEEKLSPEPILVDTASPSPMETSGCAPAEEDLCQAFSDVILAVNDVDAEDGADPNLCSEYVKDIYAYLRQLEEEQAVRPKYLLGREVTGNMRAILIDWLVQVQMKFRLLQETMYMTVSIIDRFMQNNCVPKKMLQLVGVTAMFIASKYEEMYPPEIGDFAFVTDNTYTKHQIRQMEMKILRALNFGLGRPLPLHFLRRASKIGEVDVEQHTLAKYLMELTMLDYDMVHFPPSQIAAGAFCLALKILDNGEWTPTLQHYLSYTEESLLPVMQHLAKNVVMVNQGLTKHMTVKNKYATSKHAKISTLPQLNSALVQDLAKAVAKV

O=C(c1ccccc1-c1ccccc1)N1CCc2c([nH]c3ccccc23)C1 [BPT, 2-(biphenyl-2-carbonyl)-2,3,4,9-tetrahydro-1H-pyrido[3,4-b]indole]
IC50 [1]: > 500 µM | IC50 [2]: 0.92 µM | cells detected in the sub-G1 phase [3]: < 10% | normal cells in the G2/M phase [3]: More than 50% | IC50 [4]: > 10 µM | Vmax of tubulin polymerization ([5]; 0.5 μM): 12.5 mOD/min | Vmax of tubulin polymerization ([5]; 1 μM): 9.2 mOD/min | Vmax of tubulin polymerization ([5]; 2.5 μM): 3 mOD/min | Vmax of tubulin polymerization ([5]; 5 μM): 0.5 mOD/min | reduction in final polymer mass ([5]; 0.5-5 μM): up to 80% | IC50 [6]: 0.68 µM | cyclin B1 and Cdk1 levels [7]: elevated | p53, p21 and p27 levels [7]: remained unchanged
